Patent publication US20230018737A1, “AN IN VITRO KIT AND A METHOD FOR D[…] TRANSPLANTS AND/OR AUTOIMMUNE DISEASES AND/OR TUMOR DISEASES AND/OR VA[…] A MESSENGER-SUBSTANCE-CONTAINING SUPERNATANT, CELL-[…], AND A COMBINATION, FOR USE IN D[…] TRANSPLANTS AND/OR AUTOIMMUNE DISEASES AND/OR TUMOR DISEASES AND/OR VACCINATIONS” (HOT Screen GmbH, priority 2019, published 2023)
Several values for one entry are separate records, joined by “and”; a condition that tells them apart may be missing. Equal entries are not always repeated.

Legend:
T cells = format: cell-based, human
whole blood cultures = format: cell-based, human

tetanus toxoid [TeTo]
IL-2 (T cells): 12.1 pg/mL
IL-2 Conc (T cells): 12.1 pg/mL
IL-2 SI (stimulation index) (T cells): 314
IL-10 (whole blood cultures): 8.47 pg/mL and 8.24 pg/mL
